The values that follow come from patent publication US8623325B2, “Azide modified charge sensitive channel proteins” (priority 2008, dated 2014).

The test deals with T1, E. coli channel protein MscL Gly22Cys (Escherichia coli, UniProt P0A742, G22C).
T1 construct: made in house
The experiment in a line: Calcein release from liposomes containing MscL Gly22Cys (self-quenching fluorescent dye). The format is biochemical. As for the experimental part:
MscL-MA was reconstituted into synthetic liposomes composed of azolectin by using a detergent mediated reconstitution method. The incorporation of channels protein in lipid vesicles is describe in detail in WO2005051902 This procedure was performed in the presence of calcein, a self-quenching fluorescent dye. At high local concentrations inside the liposomes, the fluorescence of calcein is low. Release of calcein from liposomes results in dilution of the dye and consequently in a large increase in fluorescence intensity. The labelling and reconstitution was validated by using unlabeled MscL instead of MscL-MA.
The activity of azide labeled Gly22Cys MscL in the liposome was verified with triphenylphosphine (Trisodium triphenylphosphine-3,3′,3″-trisulfonate) at pH 7.2-7.5 at 37° C.
A control experiment was performed using vesicles with unlabelled Gly22Cys MscL and the channel activator MTSET, which is a charged and cysteine-reactive molecule.
MscL-MA has a closed conformation. Calcein can not leave from a vesicle via this closed MscL-MA. To these vesicles MTSET was added. Unlabelled cysteine residues, if present, will react with MTSET and introduce a charge in the channel protein resulting in the opening of the channel and release of fluorescent label. Such residual activation was not observed, showing that a quantitative MA labelling of all cysteines in MscL was obtained (FIG. 7, bottom panel).
In the experimental setting calcein-filled vesicles with MscL-MA are treated with triphenylphosphine at […].
Control experiments are performed using the same calcein filled vesicles with MscL, which is not modified with MA and wherein these unmodified vesicles are treated with triphenylphosphine.

T1 sequence (P0A742 whole entry G22C): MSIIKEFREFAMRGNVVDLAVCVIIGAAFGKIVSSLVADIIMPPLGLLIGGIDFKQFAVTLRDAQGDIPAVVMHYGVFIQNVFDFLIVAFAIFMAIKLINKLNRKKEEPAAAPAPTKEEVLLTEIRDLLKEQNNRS

Turning to `CS(=O)(=O)SCCOC(=O)CNC(=O)OCc1ccc(N=[N+]=[N-])cc1` [compound IX], the “release from MscL upon contacting with phosphine” value (MscL modified with compound IX, calcein filled vesicles, pH 7.4) is listed as “significant increase in release”.
As for `C[N+](C)(C)CCSS(C)(=O)=O.[Br-]` [MTSET], the “calcein release after addition of MTSET” value (calcein-filled liposomes with unlabelled (unmodified) Gly22Cys MscL) was “resulted in calcein release”. The “activation / calcein release after addition of MTSET” value (vesicles with azide-modified MscL (MscL-MA)) is “could not activate the modified MscL”.
